Measured values reported in patent publication US20110268789A1, “USE OF PITUITARY ADENYLATE CYCLASE-ACTIVATING POLYPEPTIDE (PACAP) AND PACAP ANALOGS AS ADJUNCTIVE TREATMENTS WITH ANTICANCER AGENTS” (priority 2008, published 2011).

Columns and labels:
[1] = test system: human erythroleukemia cells; assay: Thalidomide-induced apoptotic cell death of erythroleukemia cells; format: cell-based; settings: thalidomide 48 hours, FIG. 20
Description: The human myeloid leukemia cells were cultured in RPMI 1640 medium supplemented with 10% non-inactivated fetal bovine serum. The effects of PACAP38, [D-Ser^2]PACAP38 and VIP on apoptotic cell death was assessed by the quantitative determination of cytoplasmic histone-associated DNA-fragmentation (mono- and oligonucleosomes) after exposure to thalidomide for 48 hours. Each value represents the mean plus/minus the standard deviation of four determinations. **p<0.01 and *p<0.05 compared to the thalidomide-treated (control) cells.

[2] = test system: Male C57BL/6 mice; assay: Cisplatin-induced nephrotoxicity in mice; format: in vivo, mouse; settings: cisplatin 20 mg/kg i.p., FIG. 10
Description: (§1) Male C57BL/6 mice were given a single intraperitoneal injection of 20 mg/kg of cisplatin. Twenty nanomoles of PACAP38 were given intraperitoneally 1 hour before the injection of cisplatin and additional doses were given at 24 and 48 hours after the initial dose. The control group of mice was injected intraperitoneally with the same volume of saline as for the injections of cisplatin and PACAP38 on the same schedule. The mice were euthanized 24 hours after the final injection of PACAP38. Each value represents the mean plus/minus the standard error of four determinations. ***p<0.001 and **p<0.01 compared to the group treated only with cisplatin.
as §1, with “PACAP38. TNF-α was extracted from one kidney of each mouse and quantified with an enzyme-linked immunosorbent assay.” for “PACAP38.”
Male C57BL/6 mice were given a single intraperitoneal injection of 20 mg/kg of cisplatin. Twenty nanomoles of PACAP38 were given intraperitoneally 1 hour before the injection of cisplatin and additional doses were given at 24 and 48 hours after the initial dose. The control group of mice were injected intraperitoneally with the same volume of saline as for the injections of cisplatin and PACAP38 on the same schedule. The mice were euthanized 24 hours after the final injection of PACAP38, and the kidneys were removed and fixed in 10% formalin. The fixed sections were stained with hematoxylin and eosin. The sections of the kidneys from control mice show intact renal tubular epithelial cells and well-preserved brush border membranes. The kidneys from mice treated with cisplatin had extensive tubular damage, tubular dilations, intratubular debris, and intratubular casts. […] Tubular damage was more pronounced in the outer cortex in the cisplatin treated mice. The photomicrographs on the left side were made at a lower magnification (×160) than the photomicrographs on the right side (×320). The results described in FIGS. 5, 6, 7, and 8 were from the same experiment.
as §1, with “six” for “four”
as §1, with “The cytoprotective effect of PACAP38 against cisplatin-induced nephrotoxicity was also seen in a common in vivo model. Male” for “Male”, “PACAP38.” for “PACAP38. Each value represents the mean plus/minus the standard error of four determinations. ***p<0.001 and **p<0.01 compared to the group treated only with cisplatin.”

[3] = target: T1, PAC1 receptor (Homo sapiens, UniProt P41586); settings: cited from earlier work
T1 sequence (P41586 21-468): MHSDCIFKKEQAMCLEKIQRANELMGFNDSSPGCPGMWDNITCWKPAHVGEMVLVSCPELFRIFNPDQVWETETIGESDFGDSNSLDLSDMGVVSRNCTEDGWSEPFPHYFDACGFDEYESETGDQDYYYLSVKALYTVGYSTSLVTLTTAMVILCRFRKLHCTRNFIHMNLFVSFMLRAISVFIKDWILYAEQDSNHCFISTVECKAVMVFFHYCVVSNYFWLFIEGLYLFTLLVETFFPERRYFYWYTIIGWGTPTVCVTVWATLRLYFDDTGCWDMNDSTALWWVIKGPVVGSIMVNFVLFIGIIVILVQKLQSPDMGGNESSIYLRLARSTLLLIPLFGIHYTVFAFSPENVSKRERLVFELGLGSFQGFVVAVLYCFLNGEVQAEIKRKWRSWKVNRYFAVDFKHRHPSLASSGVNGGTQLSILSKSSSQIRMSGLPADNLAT

## VIP
[1]
  effect on thalidomide-induced apoptotic cell death: dose-dependent enhancement
[2]
  relative potency as cytoprotectants against cisplatin-induced impairment of kidney function (serum creatinine): less potent
[3]
  affinity for the PAC1 receptor relative to PACAP: 1,000 times less
